In the supplement of paper PMC10307832:

Experiments:
Test in all cases: relative viability (nuclei count vs DMSO), 5 days (fraction); higher = more cells survive
CAP-232 + Olaparib = compound: C[C@H]([C@@H](C(=O)N)NC(=O)[C@@H]1CSSC[C@@H](C(=O)N[C@H](C(=O)N[C@@H](C(=O)N[C@H](C(=O)N1)CCCCN)CC2=CNC3=CC=CC=C32)CC4=CC=C(C=C4)O)NC(=O)[C@@H](CC5=CC=CC=C5)N)O [CAP-232] + O=C(c1cc(Cc2n[nH]c(=O)c3ccccc23)ccc1F)N1CCN(C(=O)C2CC2)CC1 [Olaparib] (partner 8 µM)
How it was run: (§1)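 A single step with final 0.05% Triton X-100, 1% formaldehyde and 1 ug/ml Hoechst fixed the cells and stained nuclei 5 days after treatment. Lung cancer cell lines in 1536-well plates had been treated by pin tool the day after seeding with one drug alone or a fixed anchor-drug dose plus five library-drug doses (not always all listed) in √10 steps, and nuclei were counted on 4× images. Relative viability is the ratio of nuclei in treated wells to nuclei in vehicle wells, taken as the median of duplicate plates.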

CAP-232 + Linsitinib = compound: C[C@H]([C@@H](C(=O)N)NC(=O)[C@@H]1CSSC[C@@H](C(=O)N[C@H](C(=O)N[C@@H](C(=O)N[C@H](C(=O)N1)CCCCN)CC2=CNC3=CC=CC=C32)CC4=CC=C(C=C4)O)NC(=O)[C@@H](CC5=CC=CC=C5)N)O [CAP-232] + C[C@]1(O)C[C@@H](c2nc(-c3ccc4ccc(-c5ccccc5)nc4c3)c3c(N)nccn32)C1 [Linsitinib] (partner 1 µM)
How it was run: as §1

CAP-232 + Palbociclib = compound: C[C@H]([C@@H](C(=O)N)NC(=O)[C@@H]1CSSC[C@@H](C(=O)N[C@H](C(=O)N[C@@H](C(=O)N[C@H](C(=O)N1)CCCCN)CC2=CNC3=CC=CC=C32)CC4=CC=C(C=C4)O)NC(=O)[C@@H](CC5=CC=CC=C5)N)O [CAP-232] + CC(=O)c1c(C)c2cnc(Nc3ccc(N4CCNCC4)cn3)nc2n(C2CCCC2)c1=O [Palbociclib] (partner 0.5 µM)
How it was run: as §1

CAP-232 + AZD7762 = compound: C[C@H]([C@@H](C(=O)N)NC(=O)[C@@H]1CSSC[C@@H](C(=O)N[C@H](C(=O)N[C@@H](C(=O)N[C@H](C(=O)N1)CCCCN)CC2=CNC3=CC=CC=C32)CC4=CC=C(C=C4)O)NC(=O)[C@@H](CC5=CC=CC=C5)N)O [CAP-232] + NC(=O)Nc1cc(-c2cccc(F)c2)sc1C(=O)N[C@H]1CCCNC1 [AZD7762] (partner 0.2 µM)
How it was run: as §1

CAP-232 + Luminespib = compound: C[C@H]([C@@H](C(=O)N)NC(=O)[C@@H]1CSSC[C@@H](C(=O)N[C@H](C(=O)N[C@@H](C(=O)N[C@H](C(=O)N1)CCCCN)CC2=CNC3=CC=CC=C32)CC4=CC=C(C=C4)O)NC(=O)[C@@H](CC5=CC=CC=C5)N)O [CAP-232] + CCNC(=O)c1noc(-c2cc(C(C)C)c(O)cc2O)c1-c1ccc(CN2CCOCC2)cc1 [Luminespib] (partner 0.01 µM)
How it was run: as §1

| Cell Line | relative viability (CAP-232 + Olaparib; first compound 0.4 µM) | relative viability (CAP-232 + Olaparib; first compound 1.265 µM) | relative viability (CAP-232 + Olaparib; first compound 4 µM) | relative viability (CAP-232 + Olaparib; first compound 12.65 µM) | relative viability (CAP-232 + Linsitinib; first compound 0.4 µM) | relative viability (CAP-232 + Linsitinib; first compound 1.265 µM) | relative viability (CAP-232 + Linsitinib; first compound 4 µM) | relative viability (CAP-232 + Linsitinib; first compound 12.65 µM) | relative viability (CAP-232 + Palbociclib; first compound 0.4 µM) | relative viability (CAP-232 + Palbociclib; first compound 1.265 µM) | relative viability (CAP-232 + Palbociclib; first compound 4 µM) | relative viability (CAP-232 + Palbociclib; first compound 12.65 µM) | relative viability (CAP-232 + AZD7762; first compound 0.4 µM) | relative viability (CAP-232 + AZD7762; first compound 1.265 µM) | relative viability (CAP-232 + AZD7762; first compound 4 µM) | relative viability (CAP-232 + AZD7762; first compound 12.65 µM) | relative viability (CAP-232 + Luminespib; first compound 0.4 µM) | relative viability (CAP-232 + Luminespib; first compound 1.265 µM) | relative viability (CAP-232 + Luminespib; first compound 4 µM) | relative viability (CAP-232 + Luminespib; first compound 12.65 µM) |
| --- | --- | --- | --- | --- | --- | --- | --- | --- | --- | --- | --- | --- | --- | --- | --- | --- | --- | --- | --- | --- |
| NCI-H441 | 0.482 | 0.551 | 0.595 | 0.429 | 0.439 | 0.64 | 0.699 | 0.5 | 0.209 | 0.19 | 0.257 | 0.214 | 1.03 | 1.16 | 1.22 | 0.922 | 0.388 | 0.329 | 0.382 | 0.382 |
| NCI-H460 | 0.515 | 0.384 | 0.526 | 0.332 | 0.89 | 0.865 | 0.986 | 0.44 | 0.246 | 0.148 | 0.155 | 0.0823 | 0.856 | 0.58 | 0.734 | 0.416 | 0.0294 | 0.0314 | 0.0247 | 0.0208 |
| NCI-H647 | 0.699 | 0.7 | 0.635 | 0.373 | 1.09 | 1.13 | 1.5 | 0.851 | 0.34 | 0.358 | 0.404 | 0.284 | 0.767 | 0.33 | 0.696 | 0.282 | 0.12 | 0.114 | 0.211 | 0.203 |
| NCI-H650 | 0.434 | 0.427 | 0.341 | 0.361 | 1.12 | 0.808 | 0.872 | 0.846 | 0.358 | 0.306 | 0.271 | 0.285 | 1.29 | 1.03 | 1.02 | 0.951 | 0.735 | 0.824 | 0.674 | 0.721 |
| NCI-H727 | 0.705 | 0.613 | 0.757 | 0.648 | – | 0.346 | 0.316 | 0.245 | 0.528 | 0.65 | 0.558 | 0.701 | 0.572 | 0.586 | 0.612 | 0.617 | 0.474 | 0.318 | 0.348 | 0.386 |
| NCI-H838 | 0.883 | 0.808 | 0.836 | 0.705 | 1.09 | 1.01 | 1.08 | 0.595 | 0.228 | 0.205 | 0.237 | 0.212 | 1.05 | 0.995 | 0.989 | 0.823 | 0.321 | 0.266 | 0.349 | 0.246 |
| NCI-H1355 | 0.737 | 0.747 | 0.769 | 0.703 | 0.776 | 0.901 | 1.02 | 0.754 | 0.42 | 0.413 | 0.432 | 0.343 | 0.794 | 0.82 | 0.872 | 0.706 | 0.81 | 0.808 | 0.578 | 0.683 |
| NCI-H1395 | 0.436 | – | 0.462 | 0.264 | 1.3 | 0.986 | 1.03 | 0.831 | 0.679 | – | 0.665 | 0.578 | 0.511 | – | 0.423 | 0.224 | 0.661 | 0.638 | 0.665 | 0.614 |
| NCI-H1437 | 0.64 | 0.629 | 0.665 | 0.607 | 1.04 | 1.03 | 1.17 | 0.664 | 0.293 | 0.312 | 0.315 | 0.303 | 1.15 | 1.11 | 1.09 | 1.05 | 1.17 | 1.13 | 1.24 | 0.812 |
| NCI-H1651 | 0.196 | 0.184 | 0.2 | 0.214 | 1.02 | 0.937 | 1.01 | 0.655 | 0.561 | 0.525 | 0.511 | 0.522 | 0.487 | 0.429 | 0.553 | 0.481 | 1.12 | 0.95 | 0.867 | 0.506 |
| NCI-H1666 | 0.819 | 0.75 | 0.816 | 0.664 | 0.721 | – | 0.85 | 0.619 | 0.715 | 0.636 | 0.655 | 0.67 | 0.918 | 0.882 | 0.859 | 0.908 | 1.03 | 1.04 | 0.982 | 0.963 |
| NCI-H1734 | 0.596 | 0.609 | 0.605 | 0.512 | 0.848 | 0.917 | 0.951 | 0.766 | 0.34 | 0.336 | 0.368 | 0.233 | 0.637 | 0.578 | 0.527 | 0.426 | 0.194 | 0.214 | 0.163 | 0.206 |
| NCI-H1755 | 0.911 | 0.881 | 0.935 | 0.824 | 1.07 | 0.975 | 1.08 | 0.941 | 0.474 | 0.406 | 0.48 | 0.413 | 0.453 | 0.396 | 0.536 | 0.403 | 0.419 | 0.612 | 0.329 | 0.383 |
| NCI-H1792 | 0.51 | 0.642 | 0.623 | 0.235 | 0.493 | 0.56 | 0.654 | 0.285 | 0.893 | 0.694 | 0.669 | 0.545 | 0.892 | 0.715 | 0.793 | 0.757 | 0.375 | 0.445 | 0.371 | 0.279 |
